{"source": "ChEMBL document CHEMBL1136076", "about": "“A new class of histamine H(3)-receptor antagonists: synthesis and structure-activity relationships of 7,8,9,10-tetrahydro-6H-cyclohepta[b]quinolines” (Bioorg Med Chem Lett, 2003)", "key": {"Histamine H3 receptor [1]": {"target": "Histamine H3 receptor (Rattus norvegicus, UniProt Q9QYN8)", "sequence (Q9QYN8 whole entry)": "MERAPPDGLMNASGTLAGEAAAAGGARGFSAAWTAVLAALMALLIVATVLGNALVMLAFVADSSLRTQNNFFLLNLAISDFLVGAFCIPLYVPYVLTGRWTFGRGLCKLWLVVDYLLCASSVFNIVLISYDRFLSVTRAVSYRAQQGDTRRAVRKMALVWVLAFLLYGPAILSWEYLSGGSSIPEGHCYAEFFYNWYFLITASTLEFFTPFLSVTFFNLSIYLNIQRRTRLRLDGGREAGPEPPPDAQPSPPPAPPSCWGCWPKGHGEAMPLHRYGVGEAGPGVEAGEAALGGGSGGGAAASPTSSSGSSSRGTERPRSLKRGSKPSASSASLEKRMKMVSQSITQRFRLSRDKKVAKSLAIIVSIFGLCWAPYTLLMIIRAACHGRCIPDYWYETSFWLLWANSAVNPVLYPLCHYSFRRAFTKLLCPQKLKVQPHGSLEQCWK", "assay": "Binding affinity towards rat cortical Histamine H3 receptor"}, "Histamine H3 receptor [2]": {"target": "T1, Histamine H3 receptor (Homo sapiens, UniProt Q9Y5N1)", "T1 sequence (Q9Y5N1 whole entry)": "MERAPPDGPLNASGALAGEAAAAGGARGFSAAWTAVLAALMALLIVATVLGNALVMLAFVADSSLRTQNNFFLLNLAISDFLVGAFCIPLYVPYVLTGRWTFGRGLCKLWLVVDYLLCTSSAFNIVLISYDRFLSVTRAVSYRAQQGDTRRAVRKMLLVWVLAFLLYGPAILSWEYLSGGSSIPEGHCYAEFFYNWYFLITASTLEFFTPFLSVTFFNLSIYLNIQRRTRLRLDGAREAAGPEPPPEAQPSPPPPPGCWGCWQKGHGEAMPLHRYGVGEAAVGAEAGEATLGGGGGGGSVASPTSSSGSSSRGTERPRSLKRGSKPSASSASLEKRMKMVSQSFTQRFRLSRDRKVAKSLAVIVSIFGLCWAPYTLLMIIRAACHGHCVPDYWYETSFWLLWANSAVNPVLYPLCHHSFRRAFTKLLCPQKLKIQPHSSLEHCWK", "assay": "Binding affinity towards cloned human H3L receptor"}, "Histamine H1 receptor": {"target": "Histamine H1 receptor (Homo sapiens, UniProt P35367)", "sequence (P35367 whole entry)": "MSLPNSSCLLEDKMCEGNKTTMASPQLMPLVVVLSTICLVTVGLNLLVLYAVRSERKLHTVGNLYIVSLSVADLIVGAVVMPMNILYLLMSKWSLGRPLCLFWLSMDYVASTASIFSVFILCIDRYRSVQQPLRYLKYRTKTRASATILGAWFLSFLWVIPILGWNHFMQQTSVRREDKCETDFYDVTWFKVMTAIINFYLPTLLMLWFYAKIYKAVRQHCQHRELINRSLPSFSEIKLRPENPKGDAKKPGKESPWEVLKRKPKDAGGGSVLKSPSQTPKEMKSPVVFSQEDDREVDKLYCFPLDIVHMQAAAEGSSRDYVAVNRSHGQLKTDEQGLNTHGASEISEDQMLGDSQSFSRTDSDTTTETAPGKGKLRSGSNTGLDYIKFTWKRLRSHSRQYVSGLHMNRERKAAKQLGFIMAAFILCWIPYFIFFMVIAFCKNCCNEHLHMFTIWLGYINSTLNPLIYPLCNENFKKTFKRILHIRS", "assay": "Compound was tested for its binding affinity towards human H1 receptor"}, "Histamine H2 receptor": {"target": "Histamine H2 receptor (Homo sapiens, UniProt P25021)", "sequence (P25021 whole entry)": "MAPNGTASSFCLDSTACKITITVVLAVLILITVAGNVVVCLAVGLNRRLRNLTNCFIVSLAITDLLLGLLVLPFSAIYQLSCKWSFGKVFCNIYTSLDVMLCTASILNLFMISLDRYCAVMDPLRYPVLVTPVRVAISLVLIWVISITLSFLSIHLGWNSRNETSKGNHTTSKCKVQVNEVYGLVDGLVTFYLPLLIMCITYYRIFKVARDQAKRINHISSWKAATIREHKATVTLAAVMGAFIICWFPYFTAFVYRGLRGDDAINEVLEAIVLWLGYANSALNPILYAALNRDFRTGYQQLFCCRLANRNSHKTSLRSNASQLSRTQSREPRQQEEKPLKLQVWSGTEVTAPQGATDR", "assay": "Compound was tested for its binding affinity towards human H2 receptor"}, "Histamine H3 receptor [3]": {"target": "T1, Histamine H3 receptor", "assay": "Compound was tested for its binding affinity towards human H3L receptor"}}, "note": "pKi: −log10 of the molar value."}
{"smiles": "c1ccc2c(N3CCCNCC3)c3c(nc2c1)CCCCC3", "values": [{"measurement": "pKi", "setting": "Histamine H3 receptor [1]", "result": "< 6.00"}, {"measurement": "pKi", "setting": "Histamine H3 receptor [2]", "result": "< 6.00"}]}
{"smiles": "CN1CCN(CCC#Cc2c3c(nc4ccccc24)CCCCC3)CC1", "values": [{"measurement": "pKi", "setting": "Histamine H3 receptor [1]", "result": "< 6.00"}, {"measurement": "pKi", "setting": "Histamine H3 receptor [2]", "result": 6.14}]}
{"smiles": "OC[C@H]1CCN(CCC#Cc2c3c(nc4ccccc24)CCCCC3)C1", "values": [{"measurement": "pKi", "setting": "Histamine H3 receptor [1]", "result": "< 6.00"}, {"measurement": "pKi", "setting": "Histamine H3 receptor [2]", "result": 6.02}]}
{"smiles": "C(#Cc1c2c(nc3ccccc13)CCCCC2)CCN1CCOCC1", "values": [{"measurement": "pKi", "setting": "Histamine H3 receptor [1]", "result": "< 6.00"}, {"measurement": "pKi", "setting": "Histamine H3 receptor [2]", "result": "< 6.00"}]}
{"smiles": "c1ccc2c(NCCCn3ccnc3)c3c(nc2c1)CCCCC3", "values": [{"measurement": "pKi", "setting": "Histamine H3 receptor [1]", "result": "< 6.00"}, {"measurement": "pKi", "setting": "Histamine H3 receptor [2]", "result": "< 6.00"}]}
{"smiles": "CN(C)CCCNc1c2c(nc3ccccc13)CCSC2", "values": [{"measurement": "pKi", "setting": "Histamine H3 receptor [1]", "result": 7.23}, {"measurement": "pKi", "setting": "Histamine H3 receptor [2]", "result": 7.27}]}
{"smiles": "CN(C)CCCCNc1c2c(nc3ccccc13)CCCCC2", "values": [{"measurement": "pKi", "setting": "Histamine H3 receptor [1]", "result": 7.41}, {"measurement": "pKi", "setting": "Histamine H3 receptor [2]", "result": 7.36}]}
{"smiles": "CN1CCCC1CCNc1c2c(nc3ccccc13)CCCCC2", "note": "(stereo not drawn)", "values": [{"measurement": "pKi", "setting": "Histamine H3 receptor [1]", "result": 7.74}, {"measurement": "pKi", "setting": "Histamine H1 receptor", "result": 5.39}, {"measurement": "pKi", "setting": "Histamine H2 receptor", "result": 5.76}, {"measurement": "pKi", "setting": "Histamine H3 receptor [2]", "result": 8.18}, {"measurement": "pKi", "setting": "Histamine H3 receptor [3]", "result": 8.18}]}
{"smiles": "CN(C)CCC#Cc1c2c(nc3ccccc13)CCCCC2", "values": [{"measurement": "pKi", "setting": "Histamine H3 receptor [1]", "result": 6.16}, {"measurement": "pKi", "setting": "Histamine H3 receptor [2]", "result": 6.41}]}
{"smiles": "CN(C)CCCNc1c2c(nc3ccccc13)CCCCC2", "values": [{"measurement": "pKi", "setting": "Histamine H3 receptor [1]", "result": 7.66}, {"measurement": "pKi", "setting": "Histamine H1 receptor", "result": 5.11}, {"measurement": "pKi", "setting": "Histamine H2 receptor", "result": 4.99}, {"measurement": "pKi", "setting": "Histamine H3 receptor [2]", "result": 8.01}, {"measurement": "pKi", "setting": "Histamine H3 receptor [3]", "result": 8.01}]}
{"smiles": "OC[C@@H]1CCN(CCC#Cc2c3c(nc4ccccc24)CCCCC3)C1", "values": [{"measurement": "pKi", "setting": "Histamine H3 receptor [1]", "result": 6.21}, {"measurement": "pKi", "setting": "Histamine H3 receptor [2]", "result": 6.60}]}
{"smiles": "CN1CCN(CCCNc2c3c(nc4ccccc24)CCCCC3)CC1", "values": [{"measurement": "pKi", "setting": "Histamine H3 receptor [1]", "result": 7.01}, {"measurement": "pKi", "setting": "Histamine H3 receptor [2]", "result": 7.29}]}
{"smiles": "CC(C)(C)OC(=O)N1CCN(c2c3c(nc4ccccc24)CCCCC3)CC1", "values": [{"measurement": "pKi", "setting": "Histamine H3 receptor [1]", "result": "< 6.00"}, {"measurement": "pKi", "setting": "Histamine H3 receptor [2]", "result": "< 6.00"}]}
{"smiles": "C(#Cc1c2c(nc3ccccc13)CCCCC2)CCN1CCCCCC1", "values": [{"measurement": "pKi", "setting": "Histamine H3 receptor [1]", "result": "< 6.00"}, {"measurement": "pKi", "setting": "Histamine H3 receptor [2]", "result": 6.36}]}
{"smiles": "C(#Cc1c2c(nc3ccccc13)CCCCC2)CCN1CCCCC1", "values": [{"measurement": "pKi", "setting": "Histamine H3 receptor [1]", "result": 6.39}, {"measurement": "pKi", "setting": "Histamine H1 receptor", "result": 6.00}, {"measurement": "pKi", "setting": "Histamine H2 receptor", "result": 5.49}, {"measurement": "pKi", "setting": "Histamine H3 receptor [2]", "result": 7.10}, {"measurement": "pKi", "setting": "Histamine H3 receptor [3]", "result": 7.10}]}
{"smiles": "C(#Cc1c2c(nc3ccccc13)CCCCCC2)CCN1CCCCC1", "values": [{"measurement": "pKi", "setting": "Histamine H3 receptor [1]", "result": 6.19}, {"measurement": "pKi", "setting": "Histamine H3 receptor [2]", "result": 6.80}]}
{"smiles": "CC(C)(C)OC(=O)N1CCCN(c2c3c(nc4ccccc24)CCCCC3)CC1", "values": [{"measurement": "pKi", "setting": "Histamine H3 receptor [1]", "result": "< 6.00"}, {"measurement": "pKi", "setting": "Histamine H3 receptor [2]", "result": "< 6.00"}]}
{"smiles": "CC(=O)N(CCCN(C)C)c1c2c(nc3ccccc13)CCCCC2", "values": [{"measurement": "pKi", "setting": "Histamine H3 receptor [1]", "result": "< 6.00"}, {"measurement": "pKi", "setting": "Histamine H3 receptor [2]", "result": 6.00}]}
{"smiles": "c1ccc2c(NCCCN3CCOCC3)c3c(nc2c1)CCCCC3", "values": [{"measurement": "pKi", "setting": "Histamine H3 receptor [1]", "result": 6.40}, {"measurement": "pKi", "setting": "Histamine H3 receptor [2]", "result": 6.12}]}
{"smiles": "C(#Cc1c2c(nc3ccccc13)CCCCC2)CCN1CCCC1", "values": [{"measurement": "pKi", "setting": "Histamine H3 receptor [1]", "result": 6.19}, {"measurement": "pKi", "setting": "Histamine H3 receptor [2]", "result": 6.67}]}
{"smiles": "N[C@@H]1[C@H]2CN(CCCNc3c4c(nc5ccccc35)CCCCC4)C[C@@H]12", "values": [{"measurement": "pKi", "setting": "Histamine H3 receptor [1]", "result": 7.13}, {"measurement": "pKi", "setting": "Histamine H3 receptor [2]", "result": 7.35}]}
{"smiles": "CN(C)CCNc1c2c(nc3ccccc13)CCCCC2", "values": [{"measurement": "pKi", "setting": "Histamine H3 receptor [1]", "result": 6.83}, {"measurement": "pKi", "setting": "Histamine H3 receptor [2]", "result": 7.32}]}
{"smiles": "c1ccc2c(NCCCN3CCCC3)c3c(nc2c1)CCCCC3", "values": [{"measurement": "pKi", "setting": "Histamine H3 receptor [1]", "result": 8.60}, {"measurement": "pKi", "setting": "Histamine H1 receptor", "result": 4.80}, {"measurement": "pKi", "setting": "Histamine H2 receptor", "result": 5.42}, {"measurement": "pKi", "setting": "Histamine H3 receptor [2]", "result": 8.76}, {"measurement": "pKi", "setting": "Histamine H3 receptor [3]", "result": 8.18}]}
{"smiles": "C(=C/c1c2c(nc3ccccc13)CCCCC2)/CCN1CCCCC1", "values": [{"measurement": "pKi", "setting": "Histamine H3 receptor [1]", "result": 6.56}, {"measurement": "pKi", "setting": "Histamine H3 receptor [2]", "result": 7.06}]}
{"smiles": "CN(C)CCCNc1c2c(nc3c1CCCC3)CCCCC2", "values": [{"measurement": "pKi", "setting": "Histamine H3 receptor [1]", "result": 6.45}]}
{"smiles": "CC(C)(C)OC(=O)N[C@H]1[C@@H]2CN(CCCNc3c4c(nc5ccccc35)CCCCC4)C[C@@H]21", "values": [{"measurement": "pKi", "setting": "Histamine H3 receptor [1]", "result": 7.29}, {"measurement": "pKi", "setting": "Histamine H3 receptor [2]", "result": 7.33}]}
